Test results taken from patent US9266840B2, “Bicyclic heterocyclic compound” (Astellas Pharma Inc., priority 2011, dated 2016).
Read-outs that look alike come from different tables or passages of the source.

What was measured:
[1] = target: T1, recombinant human 11β-HSD1 (Homo sapiens, UniProt P28845); assay: Human 11β-HSD1 inhibitory activity (HTRF cortisol detection); type: biochemical; conditions: recombinant human 11β-HSD1, 200 nM cortisone, 40 μM NADPH, 1 h room temperature
T1 construct: made in house
T1 sequence (P28845 whole entry): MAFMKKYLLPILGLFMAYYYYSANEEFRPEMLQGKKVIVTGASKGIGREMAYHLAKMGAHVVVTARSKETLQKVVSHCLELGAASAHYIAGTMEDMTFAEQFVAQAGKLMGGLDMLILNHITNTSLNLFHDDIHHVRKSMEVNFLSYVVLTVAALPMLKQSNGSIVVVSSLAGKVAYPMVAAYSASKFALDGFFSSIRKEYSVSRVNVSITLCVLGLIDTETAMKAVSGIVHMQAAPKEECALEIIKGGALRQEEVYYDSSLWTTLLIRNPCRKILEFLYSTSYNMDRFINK
Procedure: (§1) Test Method 1: Test for Measuring Human 11β-HSD1/11β-HSD2 Inhibitory Activity
(§2) 11β-HSD1 inhibitory activity was measured in the following order. In addition, an enzymatic reaction and assay was performed using a 384-well plate. The enzyme was prepared according to a document (Walker E. A. et al., Journal of Biological Chemistry, 2001, Vol. 276, p. 21343-21350). The reaction was performed in a manner in which various concentrations of test compounds were added to a reaction liquid including a 10 mM a phosphoric acid buffer (pH 6.6), 200 nM cortisone, 40 μM reduced nicotinamide adenine dinucleotide phosphate (NADPH), and recombinant human 11β-HSD1, followed by incubation for an hour at room temperature (10 μl/well). The test compound was dissolved in dimethylsulfoxide (DMSO), and the DMSO concentration was adjusted so as to be 1% in the reaction liquid. After the enzymatic reaction, cortisol was detected using Homogenous Time-Resolved Fluorescence (HTRF) to measure enzyme inhibitory activity. XL-665-labeled cortisol including 400 μM carbenoxolone and a cryptate-labeled cortisol antibody (CIS bio international) were added respectively to the plate at 5 μl/well, followed by incubation for 2 hours at room temperature, and then fluorescence intensity was measured using a fluorospectrometer (trade name: Discovery, manufactured by PerkinElmer Inc.), thereby calculating enzyme inhibitory activity from the ratio of fluorescence intensity between two wavelengths (665 nm/620 nm).
(§3) The results of measurement were calculated by obtaining the average of the values of three wells under the same condition. The ratio obtained when DMSO was added instead of the test compound was regarded as 0%, and the ratio obtained when 11β-HSD1 or 11β-HSD2 was not added was regarded as 100%, whereby a concentration at which the test compound suppresses the enzyme activity by 50% was calculated as IC50 of the inhibitory activity of the compound.

[2] = target: T2, recombinant human 11β-HSD2 (Homo sapiens, UniProt P80365); assay: Human 11β-HSD2 inhibitory activity (HTRF); type: biochemical; conditions: recombinant human 11β-HSD2, 200 nM cortisol, 200 μM NAD, 2 h 37° C.
T2 sequence (P80365 1-405): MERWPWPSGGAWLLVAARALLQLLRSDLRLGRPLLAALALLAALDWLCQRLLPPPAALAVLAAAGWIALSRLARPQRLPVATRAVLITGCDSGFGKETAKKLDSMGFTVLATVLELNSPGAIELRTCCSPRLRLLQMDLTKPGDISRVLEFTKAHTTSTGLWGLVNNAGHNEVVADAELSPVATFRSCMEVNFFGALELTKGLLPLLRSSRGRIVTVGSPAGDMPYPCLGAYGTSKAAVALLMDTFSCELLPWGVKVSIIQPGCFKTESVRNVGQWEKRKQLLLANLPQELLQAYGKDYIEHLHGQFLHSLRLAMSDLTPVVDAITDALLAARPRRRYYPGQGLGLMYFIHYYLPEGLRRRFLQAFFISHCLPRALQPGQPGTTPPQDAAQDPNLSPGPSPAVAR
Procedure: as §1, §2
11β-HSD2 inhibitory activity was measured in the same manner as in the measurement of the 11β-HSD1 inhibitory activity, except for the conditions of the enzymatic reaction. The enzymatic reaction was performed in the manner in which various concentrations of test substances were added to a reaction liquid including 40 mM tris-hydrochloric acid buffer (Tris-HCl) (pH 8.0), 200 nM cortisol, 200 μM nicotinamide adenine dinucleotide (NAD), and recombinant human 11β-HSD2, followed by incubation for 2 hours at 37° C. (10 μl/well).
as §3

[3] = tested on: model with fibromyalgia caused by repeated reserpine administration; assay: Test for model with fibromyalgia caused by repeated reserpine administration (muscle tenderness threshold); type: in vivo, rats (SD, male); conditions: 10 mg/kg orally, calculated point in time 60 min, healthy rat = 100%, reserpine + solvent = 0%
Procedure: Test Method 4: Test for Model with Fibromyalgia Caused by Repeated Reserpine Administration
This test was performed according to Pain, 2009, Vol. 146, p 26-33., by using rats (SD, male, 7-week old).
The threshold of muscle tenderness was measured according to the method of Schafers et al. (Pain, 2003, Vol. 104, p 579-588). A pressure stimulus slowly increasing up to 250 g was applied to the gastrocnemius muscle of the right lower leg of the rat. […] The measurement was performed 3 times for each point in time, and the average thereof was taken as a measured value.
A solvent (0.5% aqueous acetic acid) or reserpine (1 mg/kg) was subcutaneously administered to the back of the rat once a day for three days. The dose of both the solvent and reserpine administered was 1 mL per 1 kg of the body weight of the animal. 6 days after the beginning of the administration of the solvent or reserpine, the muscle tenderness threshold of each rat was measured, and the rats were grouped such that the difference in the average of threshold between the respective groups was reduced. The drug efficacy evaluation was performed on the next day. […] 30, 60, and 120 minutes after the administration, the muscle tenderness threshold was measured. For healthy rats, the drug was not administered, and only the muscle tenderness threshold was measured. […]

[4] = tested on: spontaneous alternation behavior disorder induced by scopolamine; assay: Test for spontaneous alternation behavior disorder induced by scopolamine (Y-maze); type: in vivo, male ddY mice; conditions: oral administration, ddY mice, scopolamine 0.5 mg/kg i.p.
Procedure: Test Method 2: Test for Spontaneous Alternation Behavior Disorder Induced by Scopolamine Test drugs were orally administered to 5- to 7-week old male ddY mice. 10 minutes later, scopolamine was intraperitoneally administered to the animals at 0.5 mg/kg. 20 minutes later, the animal was put in Y-maze having arms with the same length and extending in three directions and allowed to freely explore for 8 minutes. During the exploration, spontaneous arm-alternating behavior (entering different arms 3 times consecutively) was counted to calculate the rate of spontaneous alternation (spontaneous alternation behavior/(number of times of entering−2)×100), thereby judging drug efficacy.

[5] = tested on: spinal nerve ligation model; assay: Test for spinal nerve ligation model (von Frey hair test); type: in vivo, rats (SD, male); conditions: 1 mg/kg orally, 1 hour before evaluation, threshold of 50% retraction response, pseudo-operation = 100%, solvent = 0%
Procedure: Test Method 3: Test for Spinal Nerve Ligation Model This test was performed according to Pain, 1992, Vol. 50, p 355-363. The skin and muscle in the lumbar region of rats (SD, male, 5- to 6-week old) were excised under pentobarbital anesthesia, and a lumbar L6 transverse process was removed to expose lumbar nerves. L5 and L6 spinal nerves were ligated with a silk thread, and then the wound was sutured. The procedure was performed in the left side. In addition, in the case of pseudo-operation, the wound was sutured without performing nerve ligation. The drug efficacy was evaluated on the postoperative days 7 to 12 by von Frey hair test. The threshold of retraction response was calculated according to Journal of Neuroscience Methods, 1994, Vol. 53, p 55-63. By using 8 types of von Frey filaments (0.41 g to 15.14 g), the sole of the rat's hindlimb was stimulated, and the threshold of 50% retraction response was determined by an up-and-down method. […] The test substance was evaluated by calculating the improvement rate of the test substance-administered group, under the condition that the threshold of the procedure-performed limb of the pseudo-operation animal group was regarded as 100% and the threshold of the procedure-performed limb of the solvent-administered animal group having undergone operation was regarded as 0%.

[6] = tested on: cortisol in the brain homogenate; assay: Pharmacokinetic test under cortisone load (brain cortisol by ELISA); type: in vivo, male ddY mice; conditions: Mus musculus; ddY mice, 1 mg/kg orally; cortisone 1 mg/kg i.p. after 30 min, brain collected 20 min later; read-out: inhibition rate (cortisol in brain)
Procedure: Test Method 6: Pharmacokinetic Test Under Cortisone Load
A 0.5% methyl cellulose solution or a 0.5% methyl cellulose suspension including the test substance was orally administered to 5-week old male ddY mice. After 30 minutes, cortisone was intraperitoneally administered at 1 mg/kg, and 20 minutes later, the brain was collected. A phosphoric acid buffer (pH 7.0) was added to the collected brain sample, in an amount that was 9 times the weight of the brain, thereby preparing 10% brain homogenate. The quantity of cortisol in the brain homogenate was determined by ELISA, and the inhibition rate resulting from the test substance was calculated, under the condition that the amount of cortisol produced from the mouse orally administered with 0.5% methyl cellulose was regarded as 100%.

[7] = Pharmacokinetic test (plasma and brain concentration, LC-MS/MS); type: in vivo; conditions: male, mouse, po, mice, 1 mg/kg orally, an hour after administration
Procedure: Test Method 5: Pharmacokinetic Test
A 0.5% methyl cellulose suspension including the test substance was orally administered to 5-week old male mice, and the blood and brain were collected after a certain time passed from the administration. The collected blood sample was treated with sodium heparin, and then the plasma was separated, thereby preparing a plasma sample. In addition, a phosphoric acid buffer (pH 7.0) was added to the collected brain sample, in an amount that was 4 times the weight of the brain, thereby preparing 20% brain homogenate. The concentration of the respective test substances in the plasma and brain was measured using LC-MS/MS. An hour after Example 8-1 was administered at 1 mg/kg, the concentration of the substance in the plasma was 153 ng/ml, and the concentration in the brain was 58 ng/ml.

Structure (SMILES) | IC50 [1] [µM] | IC50 [2] [µM] | further results
COc1ccc(C(=O)N(C2CC2)C2CCc3[nH]ncc3C2)c2ccn(C)c12 (stereo not shown) [Example 132] | 0.038 | > 30 | 
O=C(c1ccc(-c2c(F)cncc2F)cc1)N(C1CC1)C1CCc2n[nH]cc2C1 (stereo not shown) [Example 228] | 0.053 |  | 
Cn1ccc2c(C(=O)N(C3CC3)C3CCc4[nH]ncc4C3)cccc21 (stereo not shown) [Example 81] | 0.024 | > 30 | 
O=C(c1ccc(-c2c(F)cccc2F)cc1)N(C1CC1)C1CCc2[nH]ncc2C1 (stereo not shown) [Example 216] | 0.043 |  | 
N#Cc1cccc(F)c1-c1ccc(C(=O)N(C2CC2)C2CCc3[nH]ncc3C2)cc1 (single isomer, unassigned; (-)) [Example 7-1, (−)-2′-cyano-N-cyclopropyl-6′-fluoro-N-(4,5,6,7-tetrahydro-1H-indazol-5-yl)biphenyl-4-carboxamide] | 0.018 | > 3 | Maximum improvement rate % (applied dose) [3]: 82 (10 mg/kg) %; Dose improving minimum spontaneous alternation rate [4]: 1.0 mg/kg; Improvement rate % (applied dose) [5]: 52 (1 mg/kg) %
COc1cc(OC(C)C)ccc1C(=O)N(C1CC1)C1CCc2[nH]ncc2C1 (stereo not shown) [Example 5, N-cyclopropyl-4-isopropoxy-2-methoxy-N-(4,5,6,7-tetrahydro-1H-indazol-5-yl)benzamide] | 0.056 |  | 
N#Cc1ccccc1-c1ccc(C(=O)N(C2CC2)C2CCc3[nH]ncc3C2)cc1 (stereo not shown) [Example 1, 2′-cyano-N-cyclopropyl-N-(4,5,6,7-tetrahydro-1H-indazol-5-yl)biphenyl-4-carboxamide] | 0.048 | > 30 | 
CC(C)Oc1ccc(C(=O)N(C2CC2)C2CCc3[nH]ncc3C2)cc1 (single isomer, unassigned; (-)) [Example 8-1, (−)-N-cyclopropyl-4-isopropoxy-N-(4,5,6,7-tetrahydro-1H-indazol-5-yl)benzamide] | 0.026 | > 30 | inhibition at 1 mg/kg [6]: 43%; concentration at 1 h ([7]; plasma, read-out: concentration of the substance in the plasma): 153 ng/mL; concentration at 1 h ([7]; brain homogenate, read-out: concentration in the brain): 58 ng/mL; Maximum improvement rate % (applied dose) [3]: 104 (10 mg/kg) %; Dose improving minimum spontaneous alternation rate [4]: 0.3 mg/kg; Improvement rate % (applied dose) [5]: 73 (1 mg/kg) %
N#Cc1cc(F)ccc1-c1ccc(C(=O)N(C2CC2)C2CCc3[nH]ncc3C2)cc1 (stereo not shown) [Example 176] | 0.088 |  | 
N#Cc1ccccc1-c1ccc(C(=O)N(C2CC2)C2CCc3[nH]ncc3C2)c(F)c1 (stereo not shown) [Example 190] | 0.025 |  | 
Cc1cc(C(=O)N(C2CC2)C2CCc3n[nH]cc3C2)c(C)n1Cc1ccc(F)cc1F (stereo not shown) [Example 30] | 0.028 | > 3 | 
CC(F)(F)CCCn1ncc2c(C(=O)N(C3CC3)C3CCc4[nH]ncc4C3)cccc21 (stereo not shown) [Example 159] | 0.04 | > 30 | 
CC(C)Cc1ccc(C(=O)N(C2CC2)C2CCc3[nH]ncc3C2)cc1 (stereo not shown) [Example 237] | 0.04 |  | 
O=C(c1ccc(-c2ccccc2F)o1)N(C1CC1)C1CCc2[nH]ncc2C1 (stereo not shown) [Example 27] | 0.062 | > 3 | 
